Assays:
[1] = biological target: 5-hydroxytryptamine receptor 3A (Homo sapiens) (UniProt P46098); conditions: Compound concentration 10.0 uM
[2] = biological target: Beta-3 adrenergic receptor (Homo sapiens) (UniProt P13945); conditions: Compound concentration 10.0 uM
[3] = biological target: GABA-A receptor; anion channel (Rattus norvegicus) (UniProt O09028+P15431+P18506+P18508+P19969+P20236+P23574+P23576+P28471+P28473+P30191+P62813+P63079+P63138+Q91ZM7+Q9ES14); experiment: Inhibition of GABAA, Muscimol, Central at 10 µM in the Eurofins-Panlabs radioligand binding assay (Eurofins_assay_226500); format: protein-complex assay; conditions: Compound concentration 10.0 uM
[4] = biological target: Glucocorticoid receptor (Homo sapiens) (UniProt P04150); experiment: Glucocorticoid Eurofins-Panlabs radioligand binding assay; conditions: Compound concentration 10.0 uM
[5] = biological target: Glutamate receptor ionotropic, kainate (Rattus norvegicus) (UniProt P22756+Q01812+P42260+P42264+Q63273); experiment: Inhibition of Glutamate, Kainate at 10 µM in the Eurofins-Panlabs radioligand binding assay (Eurofins_assay_232700); conditions: Compound concentration 10.0 uM
[6] = biological target: Glutamate NMDA receptor (Rattus norvegicus) (UniProt P35439+Q00959+Q00960+Q00961+Q62645+Q8VHN2+Q9R1M7); conditions: Compound concentration 10.0 uM
Mus musculus = species: Mus musculus; experiment: Inhibition of Interleukin IL-1 at 10 µM in the Eurofins-Panlabs radioligand binding assay (Eurofins_assay_243520); design: ligand concentration 0.1 nM; conditions: Compound concentration 10.0 uM
[7] = biological target: Kappa-type opioid receptor (Homo sapiens) (UniProt P41145); conditions: Compound concentration 10.0 uM
Sequence of Kappa-type opioid receptor (Homo sapiens) (P41145 whole entry): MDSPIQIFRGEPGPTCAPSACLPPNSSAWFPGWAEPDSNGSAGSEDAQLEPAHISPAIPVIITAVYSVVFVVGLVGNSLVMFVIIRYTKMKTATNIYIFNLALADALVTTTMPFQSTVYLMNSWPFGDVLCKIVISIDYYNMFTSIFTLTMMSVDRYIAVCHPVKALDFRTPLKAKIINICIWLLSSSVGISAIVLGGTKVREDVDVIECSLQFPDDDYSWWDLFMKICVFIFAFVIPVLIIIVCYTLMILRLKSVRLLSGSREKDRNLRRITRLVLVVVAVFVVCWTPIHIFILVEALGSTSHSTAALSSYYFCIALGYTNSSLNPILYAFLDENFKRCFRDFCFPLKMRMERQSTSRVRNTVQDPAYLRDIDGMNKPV

[8] = biological target: Sodium-dependent noradrenaline transporter (Homo sapiens) (UniProt P23975); conditions: Compound concentration 10.0 uM
Sequence of Sodium-dependent noradrenaline transporter (Homo sapiens) (P23975 whole entry): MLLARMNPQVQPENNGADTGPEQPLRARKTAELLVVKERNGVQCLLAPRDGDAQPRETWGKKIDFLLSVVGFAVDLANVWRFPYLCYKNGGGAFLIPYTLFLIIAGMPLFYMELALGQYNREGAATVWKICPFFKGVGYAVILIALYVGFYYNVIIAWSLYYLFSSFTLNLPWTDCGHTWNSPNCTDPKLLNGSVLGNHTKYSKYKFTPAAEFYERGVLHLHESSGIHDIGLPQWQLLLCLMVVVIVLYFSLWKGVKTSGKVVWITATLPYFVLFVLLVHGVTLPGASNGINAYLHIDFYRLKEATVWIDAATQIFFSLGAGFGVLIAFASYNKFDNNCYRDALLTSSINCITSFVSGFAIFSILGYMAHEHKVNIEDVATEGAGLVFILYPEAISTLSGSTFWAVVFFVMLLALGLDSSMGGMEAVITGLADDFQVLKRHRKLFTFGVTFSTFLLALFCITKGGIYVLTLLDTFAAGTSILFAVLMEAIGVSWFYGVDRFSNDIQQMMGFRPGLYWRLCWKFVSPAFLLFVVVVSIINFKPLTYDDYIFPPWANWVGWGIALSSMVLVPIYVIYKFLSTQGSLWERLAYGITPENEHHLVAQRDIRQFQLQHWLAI

[9] = biological target: Platelet-activating factor receptor (Homo sapiens) (UniProt P25105); experiment: Inhibition of Platelet Activating Factor (PAF) at 10 µM in the Eurofins-Panlabs radioligand binding assay (Eurofins_assay_265010); conditions: Compound concentration 10.0 uM
Sequence of Platelet-activating factor receptor (Homo sapiens) (P25105 whole entry): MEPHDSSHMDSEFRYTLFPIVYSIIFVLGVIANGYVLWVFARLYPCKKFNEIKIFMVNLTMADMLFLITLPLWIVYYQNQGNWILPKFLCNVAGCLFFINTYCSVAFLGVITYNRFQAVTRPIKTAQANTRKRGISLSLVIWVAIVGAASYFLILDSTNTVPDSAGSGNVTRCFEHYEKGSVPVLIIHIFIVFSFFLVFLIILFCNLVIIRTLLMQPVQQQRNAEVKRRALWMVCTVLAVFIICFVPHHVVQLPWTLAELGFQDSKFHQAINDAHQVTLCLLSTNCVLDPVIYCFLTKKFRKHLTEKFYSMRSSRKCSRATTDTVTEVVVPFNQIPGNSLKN

[10] = biological target: voltage-gated sodium channel, site 2 (Rattus norvegicus, UniProt F1LQQ7+O08562+O88420+O88457+P04774+P04775+P08104+P15389+P15390+Q62968); experiment: Inhibition of Sodium Channel, Site 2 at 10 µM in the Eurofins-Panlabs radioligand binding assay (Eurofins_assay_279510); format: protein assay; design: ligand concentration 5 nM, non-specific ligand with concentration 100 µM Veratridine, incubation time 60 min, incubation temperature 37 °C; conditions: male, Wistar, rat whole brain (except cerebellum) membranes, probe [3H] Batrachotoxinin, compound concentration 10 uM
[11] = biological target: Endothelin-1 receptor (Homo sapiens) (UniProt P25101); conditions: Compound concentration 10.0 uM
Sequence of Endothelin-1 receptor (Homo sapiens) (P25101 whole entry): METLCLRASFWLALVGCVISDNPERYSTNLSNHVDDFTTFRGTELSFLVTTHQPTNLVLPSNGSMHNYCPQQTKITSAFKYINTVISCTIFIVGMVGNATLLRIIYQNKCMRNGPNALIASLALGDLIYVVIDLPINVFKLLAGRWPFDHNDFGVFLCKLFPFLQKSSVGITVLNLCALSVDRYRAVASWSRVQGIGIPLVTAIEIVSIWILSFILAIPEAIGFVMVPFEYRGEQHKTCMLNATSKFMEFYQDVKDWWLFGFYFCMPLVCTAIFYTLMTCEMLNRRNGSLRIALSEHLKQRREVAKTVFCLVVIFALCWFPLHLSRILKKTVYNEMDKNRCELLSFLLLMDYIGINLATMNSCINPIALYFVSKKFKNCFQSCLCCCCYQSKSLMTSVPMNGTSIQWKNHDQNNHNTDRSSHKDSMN

[12] = biological target: T1, D(4) dopamine receptor (Homo sapiens) (UniProt P21917); experiment: Inhibition of Dopamine D4.2 at 10 µM in the Eurofins-Panlabs radioligand binding assay (Eurofins_assay_219900); design: ligand concentration 0.5 nM; conditions: Compound concentration 10.0 uM
T1 sequence (whole entry): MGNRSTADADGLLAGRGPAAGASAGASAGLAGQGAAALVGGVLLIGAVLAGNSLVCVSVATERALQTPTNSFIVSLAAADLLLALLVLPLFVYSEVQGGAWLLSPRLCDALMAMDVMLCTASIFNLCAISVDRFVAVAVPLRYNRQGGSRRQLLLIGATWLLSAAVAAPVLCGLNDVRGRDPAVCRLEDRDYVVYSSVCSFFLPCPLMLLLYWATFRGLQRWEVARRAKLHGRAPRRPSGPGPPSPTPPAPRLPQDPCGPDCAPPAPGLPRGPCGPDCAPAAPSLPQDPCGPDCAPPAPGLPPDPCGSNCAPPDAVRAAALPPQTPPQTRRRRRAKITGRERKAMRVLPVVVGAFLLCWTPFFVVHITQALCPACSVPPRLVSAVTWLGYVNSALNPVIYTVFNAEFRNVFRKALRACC

[13] = biological target: Adenosine receptor A1 (Homo sapiens) (UniProt P30542); conditions: Compound concentration 10.0 uM
Sequence of Adenosine receptor A1 (Homo sapiens) (P30542 whole entry): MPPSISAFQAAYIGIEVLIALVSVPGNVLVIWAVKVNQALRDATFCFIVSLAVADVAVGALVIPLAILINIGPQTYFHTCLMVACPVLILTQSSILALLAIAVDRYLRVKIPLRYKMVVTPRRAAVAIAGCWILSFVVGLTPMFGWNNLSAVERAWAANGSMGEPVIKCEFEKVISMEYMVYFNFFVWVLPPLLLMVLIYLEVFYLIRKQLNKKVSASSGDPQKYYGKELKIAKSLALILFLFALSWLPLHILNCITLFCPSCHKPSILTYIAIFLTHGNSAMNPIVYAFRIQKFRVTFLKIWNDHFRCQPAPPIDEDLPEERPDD

Oryctolagus cuniculus = species: Oryctolagus cuniculus; experiment: Inhibition of Purinergic P2X at 10 µM in the Eurofins-Panlabs radioligand binding assay (Eurofins_assay_268700); format: protein assay; conditions: Compound concentration 10.0 uM
[14] = biological target: Estrogen receptor (Homo sapiens) (UniProt P03372); conditions: Compound concentration 10.0 uM
Sequence of Estrogen receptor (Homo sapiens) (P03372 whole entry): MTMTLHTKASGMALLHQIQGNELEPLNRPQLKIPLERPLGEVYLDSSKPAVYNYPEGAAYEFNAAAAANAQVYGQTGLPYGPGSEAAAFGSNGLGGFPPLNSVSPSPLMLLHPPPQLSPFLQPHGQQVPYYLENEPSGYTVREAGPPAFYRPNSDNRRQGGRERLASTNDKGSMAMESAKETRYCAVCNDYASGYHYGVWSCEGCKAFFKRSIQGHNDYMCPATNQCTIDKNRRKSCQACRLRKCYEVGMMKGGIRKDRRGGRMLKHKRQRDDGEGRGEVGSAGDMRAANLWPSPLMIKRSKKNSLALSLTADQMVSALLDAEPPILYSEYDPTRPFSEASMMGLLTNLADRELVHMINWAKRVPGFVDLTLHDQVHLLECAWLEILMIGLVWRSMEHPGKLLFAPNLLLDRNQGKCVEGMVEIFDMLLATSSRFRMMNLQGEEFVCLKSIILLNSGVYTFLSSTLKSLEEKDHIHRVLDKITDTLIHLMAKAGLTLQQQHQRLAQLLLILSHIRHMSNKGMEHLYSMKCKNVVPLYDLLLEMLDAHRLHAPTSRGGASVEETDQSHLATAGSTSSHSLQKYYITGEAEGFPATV

[15] = biological target: D(1A) dopamine receptor (Homo sapiens) (UniProt P21728); conditions: Compound concentration 10.0 uM
[16] = biological target: Sigma non-opioid intracellular receptor 1 (Homo sapiens) (UniProt Q99720); conditions: Compound concentration 10.0 uM
Sequence of Sigma non-opioid intracellular receptor 1 (Homo sapiens) (Q99720 whole entry): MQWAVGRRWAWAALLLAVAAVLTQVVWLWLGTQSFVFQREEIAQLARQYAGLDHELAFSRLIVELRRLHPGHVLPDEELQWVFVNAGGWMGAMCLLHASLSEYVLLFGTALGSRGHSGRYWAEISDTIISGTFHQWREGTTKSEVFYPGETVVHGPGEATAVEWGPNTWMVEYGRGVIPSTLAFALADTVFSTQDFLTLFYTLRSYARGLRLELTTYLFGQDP

[17] = biological target: T2, Muscarinic acetylcholine receptor M2 (Homo sapiens) (UniProt P08172); conditions: Compound concentration 10.0 uM
T2 sequence (whole entry): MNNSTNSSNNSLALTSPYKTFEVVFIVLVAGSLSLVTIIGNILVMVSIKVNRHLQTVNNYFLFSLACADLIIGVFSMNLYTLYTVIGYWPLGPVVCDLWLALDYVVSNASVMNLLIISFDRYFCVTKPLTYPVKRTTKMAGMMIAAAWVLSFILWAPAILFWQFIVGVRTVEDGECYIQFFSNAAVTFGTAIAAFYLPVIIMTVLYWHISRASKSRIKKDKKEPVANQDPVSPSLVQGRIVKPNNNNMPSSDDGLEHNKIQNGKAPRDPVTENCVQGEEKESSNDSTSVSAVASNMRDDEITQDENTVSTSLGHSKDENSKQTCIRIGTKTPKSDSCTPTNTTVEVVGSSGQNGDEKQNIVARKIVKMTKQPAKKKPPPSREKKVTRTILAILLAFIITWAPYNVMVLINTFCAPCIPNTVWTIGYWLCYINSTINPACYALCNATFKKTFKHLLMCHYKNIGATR

Rattus norvegicus [18] = species: Rattus norvegicus; experiment: Inhibition of Glutamate, NMDA, Phencyclidine at 10 µM in the Eurofins-Panlabs radioligand binding assay (Eurofins_assay_233000); format: protein-complex assay; conditions: Compound concentration 10.0 uM
[19] = biological target: Neuropeptide Y receptor type 2 (Homo sapiens) (UniProt P49146); experiment: Inhibition of Neuropeptide Y Y2 at 10 µM in the Eurofins-Panlabs radioligand binding assay (Eurofins_assay_257110); conditions: Compound concentration 10.0 uM
Sequence of Neuropeptide Y receptor type 2 (Homo sapiens) (P49146 whole entry): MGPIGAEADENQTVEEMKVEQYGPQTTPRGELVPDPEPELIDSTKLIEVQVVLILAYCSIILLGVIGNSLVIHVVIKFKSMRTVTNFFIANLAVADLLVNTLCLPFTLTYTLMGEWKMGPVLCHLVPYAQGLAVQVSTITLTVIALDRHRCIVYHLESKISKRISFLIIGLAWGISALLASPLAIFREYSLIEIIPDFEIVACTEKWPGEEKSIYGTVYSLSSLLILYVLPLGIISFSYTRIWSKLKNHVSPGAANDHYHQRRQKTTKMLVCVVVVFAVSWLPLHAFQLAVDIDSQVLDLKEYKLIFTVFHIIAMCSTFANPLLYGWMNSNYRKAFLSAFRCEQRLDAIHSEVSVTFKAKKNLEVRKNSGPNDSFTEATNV

Rattus norvegicus [20] = species: Rattus norvegicus; experiment: Testosterone Eurofins-Panlabs radioligand binding assay; design: ligand concentration 1.5 nM; conditions: Compound concentration 10.0 uM
[21] = biological target: Sigma non-opioid intracellular receptor 1 (Homo sapiens) (UniProt Q99720); experiment: Sigma 1 Eurofins-Panlabs radioligand binding assay; design: ligand concentration 8 nM; conditions: Compound concentration 10.0 uM
Homo sapiens = species: Homo sapiens; experiment: Inhibition of Nicotinic Acetylcholine at compound concentration of 10.0 uM in the Eurofins-Panlabs radioligand binding assay (Eurofins_assay_258590); format: protein-complex assay; conditions: Compound concentration 10.0 uM
[22] = biological target: Mu-type opioid receptor (Homo sapiens) (UniProt P35372); experiment: my(MOP) (h) Eurofins-Cerep Cellular and Nuclear Receptor Functional Assays; conditions: Compound concentration 10.0 uM
Sequence of Mu-type opioid receptor (Homo sapiens) (P35372 whole entry): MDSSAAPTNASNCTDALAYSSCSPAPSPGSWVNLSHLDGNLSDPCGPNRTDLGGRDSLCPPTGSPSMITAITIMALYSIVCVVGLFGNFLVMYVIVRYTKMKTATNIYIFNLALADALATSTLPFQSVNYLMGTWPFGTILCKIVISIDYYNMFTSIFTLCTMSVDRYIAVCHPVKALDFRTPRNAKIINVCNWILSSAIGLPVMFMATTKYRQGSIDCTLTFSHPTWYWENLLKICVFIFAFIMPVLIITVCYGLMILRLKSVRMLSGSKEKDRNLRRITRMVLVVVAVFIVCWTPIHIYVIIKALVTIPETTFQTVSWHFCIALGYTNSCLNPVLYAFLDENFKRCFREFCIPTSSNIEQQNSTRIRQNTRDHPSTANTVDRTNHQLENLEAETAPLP

[23] = biological target: Sodium-dependent noradrenaline transporter (Homo sapiens) (UniProt P23975); conditions: Compound concentration 10.0 uM; remark: listed apart in the source
[24] = biological target: Prostaglandin E2 receptor EP4 subtype (Homo sapiens) (UniProt P35408); experiment: Inhibition of Prostanoid EP4 at 10 µM in the Eurofins-Panlabs radioligand binding assay (Eurofins_assay_268420); design: ligand concentration 1 nM; conditions: Compound concentration 10.0 uM
Sequence of Prostaglandin E2 receptor EP4 subtype (Homo sapiens) (P35408 whole entry): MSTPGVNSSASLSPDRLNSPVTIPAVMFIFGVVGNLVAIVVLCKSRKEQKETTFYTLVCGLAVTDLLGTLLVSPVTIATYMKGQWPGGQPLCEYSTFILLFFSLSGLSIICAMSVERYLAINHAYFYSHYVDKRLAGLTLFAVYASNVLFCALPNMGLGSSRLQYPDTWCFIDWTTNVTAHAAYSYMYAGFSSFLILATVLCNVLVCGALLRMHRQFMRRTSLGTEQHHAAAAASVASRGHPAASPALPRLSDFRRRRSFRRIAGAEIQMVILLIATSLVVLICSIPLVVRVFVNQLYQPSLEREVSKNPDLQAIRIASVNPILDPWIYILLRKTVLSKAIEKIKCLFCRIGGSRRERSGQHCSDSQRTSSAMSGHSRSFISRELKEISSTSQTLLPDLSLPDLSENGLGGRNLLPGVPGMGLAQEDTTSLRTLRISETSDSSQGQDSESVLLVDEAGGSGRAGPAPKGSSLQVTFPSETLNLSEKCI

Sequence of 5-hydroxytryptamine receptor 3A (Homo sapiens) (P46098 whole entry): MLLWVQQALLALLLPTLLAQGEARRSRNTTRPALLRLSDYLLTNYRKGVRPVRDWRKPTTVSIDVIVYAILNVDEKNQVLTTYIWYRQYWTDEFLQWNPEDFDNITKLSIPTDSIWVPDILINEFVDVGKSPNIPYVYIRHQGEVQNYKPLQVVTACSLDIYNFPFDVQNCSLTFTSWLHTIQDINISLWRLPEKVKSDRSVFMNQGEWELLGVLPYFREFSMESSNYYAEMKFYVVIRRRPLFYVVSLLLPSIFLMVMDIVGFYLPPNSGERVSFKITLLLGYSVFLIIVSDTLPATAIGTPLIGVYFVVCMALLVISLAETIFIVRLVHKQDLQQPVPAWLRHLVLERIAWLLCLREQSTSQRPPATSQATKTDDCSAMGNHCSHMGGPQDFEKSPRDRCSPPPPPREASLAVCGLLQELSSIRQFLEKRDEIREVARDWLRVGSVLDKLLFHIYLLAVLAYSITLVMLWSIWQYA

SMILES: Cc1noc([C@H]2C[C@@H](c3ccc(C(F)(F)F)cc3)CN(C(=O)N3CCS(=O)(=O)C3)C2)n1 [BAY-448]
- inhibition [1]: 12.8%
- inhibition [2]: 19.3%

SMILES: O=C(N1CCS(=O)(=O)CC1)N1C[C@H](c2ccc(OC(F)(F)F)cc2)C[C@H](c2nc(C3CC3)no2)C1 [BAY-386]
- inhibition [3]: 10%
- inhibition [4]: 9%
- inhibition [5]: 15%
- inhibition [6]: 12%
- inhibition (Mus musculus): 16%
- inhibition [7]: -3%
- inhibition [8]: 17%
- inhibition [9]: 0%
- inhibition at 60 min, 10 µM [10]: 55%
- inhibition [11]: 2%
- inhibition [12]: -9%
- inhibition [13]: -6%
- inhibition (Oryctolagus cuniculus): 9%
- inhibition [14]: -1%
- inhibition [15]: 4%
- inhibition [16]: 40.3%
- inhibition [17]: -3%
- inhibition (Rattus norvegicus [18]): 0%
- inhibition [19]: 2%
- inhibition (Rattus norvegicus [20]): 11%
- inhibition [21]: 12%
- inhibition (Homo sapiens): -4%
- % Inhibition of Control Agonist Response (Mean n=2) [22]: 3.7%
- % of Control Agonist Response (Mean n=2) [22]: 1%
- inhibition [23]: -1.24%
- inhibition [24]: 1%
